The values that follow come from US10973925B2, “Methods and compositions for theranostic nanoparticles” (University of Central Florida Research Foundation, Inc., priority 2015, dated 2021).

Data set [1] concerns PSMA(+) PC3 tumors. As to conditions: two week experiment (FIG. 22D).
Description: FIG. 22A depicts an image of mice that were injected subcutaneously (SC) with PSMA(+) (right flank) or PSMA(−) (left flank) PCa tumor cells. Upon tumor detection (˜2 weeks), the mice were injected intravenously (IV) with PEG-(FOL)-HBPE-NPs (2 mg/kg/dose) containing a near IR dye (FIG. 22A) or CT20p (FIG. 22B). Mice were imaged after 24 hours (FIG. 22A) or sacrificed after 10 days (FIG. 22B). […] FIG. 22D is a graph that summarizes a two week experiment in which mice (n=5) bearing PSMA+ tumors (SC) were IV injected once per week with FOL-HBPE-NPs (2 mg/kg/dose) that were empty or had CT20p and were compared to COOH-NPs (untargeted) with CT20p or FOL-targeted doxorubicin (DOX). *p<0.05. The mice were euthanized before the tumors ulcerated.
Data set [2] concerns cancer cells. Nature of the data set: CT20p activities in cancer cells (timeline). Format: cell-based. The method, then: FIGS. 18A-18J illustrate a timeline of CT20p activities in cancer cells. […] Gates are N, necrotic; V, viable; A, apoptotic. Percentages are V (black) and N+A (red). FIG. 18E is a graph showing that by 6 hours, cells detach from the substrate (fibronectin). Such cell detachment was measured using a crystal violet adhesion assay.
(§1) Recently, a mitotoxic peptide that kills cancer cells was discovered. […] Cell death (anoikis), indicated by membrane asymmetry, was detectable in cancer cells by 48 hours (FIG. 18J). […] These findings indicate that CT20p impairs cancer cell invasiveness through its actions on mitochondria and the cytoskeleton, which causes detachment-induced cell death.

The test system of data set [3] is cells. The settings on record: cited from earlier work.
Data set [4] deals with normal cells. Kind of data set: CT20p in normal cells / control epithelial cell line. Format: cell-based. As for the experimental part: as §1
Data set [5] concerns cancer cells. As to conditions: expression or introduction of CT20p in cancer cells; cited from earlier work.
The subject of data set [6] is PSMA-expressing PCa cells. Kind of data set: Effects of CT20p upon cell adhesion and anoikis. Format: cell-based. The method, then:
An essential activity that promotes the invasiveness of metastatic cells is rearrangement of the cytoskeleton, which can be linked to integrin signaling. […] At selected time points, PCa cells (Table 1) as well as control cells were treated with Mitotracker Red to visualize mitochondria and then were fixed on coverslips for staining with Alexa Fluor™ 647 phalloidin, a high-affinity F-actin probe, or Deoxyribonuclease I, Alexa Fluor™ 488-conjugate for G-actin for imaging by confocal microscopy (Zeiss 710). To examine how integrin signaling was impaired by CT20p, the surface expression of integrins detected with fluorescence-conjugated antibodies (β1, CD29 and αVβ3, CD51/61) by flow cytometry, was examined. Levels of additional integrins (αV or α5) were also evaluated by immunoblotting cell lysates. To determine whether cell detachment and the reduction in integrin levels could activate anoikis, the CytoSelect® 96-well Anoikis Assay Kit was used and standard assays of cell migration and invasion were performed. Additionally, to test the effects of CT20p under conditions of directed migration, the cells described above were treated with conditioned media from 3T3 cells, which contains chemotactic factors.

Data set [7] has as its system PSMA positive LNCaP cells. As to conditions: LNCaP cell viability.
Excerpt: The amount of encapsulated abiraterone was estimated following a reported protocol and defined as encapsulation efficiency.
The test system of data set [8] is PCa primary tumors and metastatic lesions.
Description: Results were compared with those obtained with free doxorubicin or folate-ss-doxorubicin. Again, the lead HBPE-NP preparations from Experiment 2 were used. Male SCID mice were used that are either intact or castrated and treated with testosterone (SC) or DHT pellet. SCID mice were injected SC with luciferase expressing LNCaP cells and, upon tumor growth, D-luciferin was injected prior to imaging (IVIS, Perkin Elmer). In all experiments, NPs without targeting ligand or without CT20p were used as controls. Mice were injected once every week, for 3-4 weeks, with control DFO-HBPE-NPs or PSMA-targeted DFO-HBPE(CT20p)-NPs. Tumor growth was monitored by measuring the tumor size using a caliper or by ultrasound as well as by bio-luminescence as described above. In addition, blood was collected for weekly PSA measurements (with a commercially available ELISA), using the value prior to therapy as a baseline. The tumors were followed for 6 weeks or until reaching 1.5 cm in size (whichever came first). At experimental endpoints, remaining tumor tissue, as well as liver, spleen, kidney, lungs and brain, were collected and examined by immunohistochemistry (using J591 to identify PSMA) and also qRT-PCR and quantitative Western Blot for PSMA levels in the tumor to correlates with response to the targeted therapy. […]
Data set [9] concerns macrophages (RAW cells). Kind of data set: Cell death of non-transformed cells (Sytox analysis). Format: cell-based. The method, then: FIGS. 21A-21J show dose- (FIGS. 21A, 21C) and time- (FIGS. 21D, 21F) dependent cytotoxicity assay of PCa cells treated with Folate.HBPE(Dil)-NPs. PCa Cells: LNCap (FIGS. 21A, 21D), PSMA(+) PC3 (FIGS. 21B, 21E) and PC3 (FIGS. 21C, 21F). […] V, viable; N, necrotic, A, apoptotic.
To study any effect that folate-HBPE (CT20p)-NPs may have on non-transformed cells, macrophages (RAW cells) were incubated with the folate-HBPE(CT20p)-NPs and cell death was assessed.

Where [10] appears, read: by 24 hours post-CT20p treatment.

pIC50: −log10 of the molar value. Entries after “also recorded” stand apart in the source; their conditions may differ. Residues, ends and D or L forms follow the SMILES beside them.

Consider `CC[C@H](C)[C@H](NC(=O)[C@@H](NC(=O)[C@H](CC(C)C)NC(=O)[C@H](CO)NC(=O)[C@H](C)NC(=O)[C@@H](NC(=O)[C@H](CC(C)C)NC(=O)[C@@H](NC(=O)CNC(=O)[C@H](C)NC(=O)[C@@H](NC(=O)[C@H](Cc1ccccc1)NC(=O)[C@@H](NC(=O)[C@@H](NC(=O)[C@@H](NC(C)=O)C(C)C)[C@@H](C)O)[C@@H](C)CC)C(C)C)C(C)C)[C@@H](C)O)[C@@H](C)O)C(=O)N[C@@H](Cc1c[nH]c2ccccc12)C(=O)N[C@@H](CCCCN)C(=O)N[C@@H](CCCCN)C(=O)N[C@@H](CCSC)C(=O)NCC(N)=O` [CT20p] (Ac-VTIFVAGVLTASLTIWKKMG-NH2), for which the “efficacy in PSMA+ tumors” value in data set [1] is “more effective than drugs like Doxoyrubucin”. For the same compound, the “concentration range in which the peptide works” value in [2] is recorded as “nanomolar range”. For the same compound, in [2] (setting [10]), the ROS production result was “increased ROS production”, the autophagy result is recorded as “induction of autophagy” and the caspases result is “activation of caspases”. In addition, the mitochondrial membrane effect entry in data set [2] (cancer cells) was “hyperpolarization of the mitochondrial membrane and fusion-like aggregation; also recorded: mitochondrial membranes hyperpolarize and fuse”. The “β1 integrin surface level” value in data set [2] (prior to cell detachment) is reported as “decreased surface expression of β1 integrin; also recorded: membrane levels of β1 integrin decreased”. Further, the “co-localization of peptide with mitochondria” value in data set [2] (˜3.4 nM CT20p in NPs, cancer cells) is reported as “co-localization of the peptide (red) with mitochondria (green) was detected”. In addition, the uptake by cells entry in data set [3] is “not taken up by cells”. Moreover, in [4] (control epithelial cell line), the “mitochondrial localization, autophagosome formation or cell death” value is listed as “not observed”. In data set [4] (normal cells (FIG. 19C)), the cell death result was “minimal cell death was detected”. The “block of cell death by Bcl-2 overexpression, Bax deficiency or caspase inhibition” value in [5] is reported as “minimally blocked it”. In addition, the “F-actin and integrin signaling” value in data set [6] is “loss of F-actin and reduced integrin signaling”.

Usually pIC50 stands for the IC50 on a negative log10 scale, so that one unit is a factor of ten. A lower pIC50 goes with a high IC50. In turn, `C[C@]12CC[C@H](O)CC1=CC[C@@H]1[C@@H]2CC[C@]2(C)C(c3cccnc3)=CC[C@@H]12` [abiraterone] gave a pIC50 in data set [7] of 5.59.

Consider `COc1cccc2c1C(=O)c1c(O)c3c(c(O)c1C2=O)C[C@@](O)(C(=O)CO)C[C@@H]3O[C@H]1C[C@H](N)[C@H](O)[C@H](C)O1` [Doxorubicin], for which, in data set [8] (also castration and hormone signaling conditions), the tumor regression entry is “Tumor regression also occurs”. Also, the off-target toxicity result in data set [8] (mouse, in vivo) is on record as “off-target toxicity was observed”. The toxicity to macrophages entry in [9] is recorded as “death of macrophages was observed”.
